Earlier results, collected in PMC9606943, “Synthesis and Chemopreventive Potential of 5-FU/Genistein Hybrids on Colorectal Cancer Cells” (Pharmaceuticals, 2022).

How the values were obtained:
MCF-7 = tested on: MCF-7; design: method as in PMID 21389782; conditions: ER-positive breast cancer cell line; cited from earlier work
21PT = tested on: 21PT; design: method as in PMID 21389782; conditions: ER-positive breast cancer cell line; cited from earlier work
T47D = tested on: T47D; design: method as in PMID 21389782; conditions: ER-positive breast cancer cell line; cited from earlier work
SW480 cells = tested on: SW480 cells; design: method as in earlier work; conditions: 48 h post-treatment with 300 µM; cited from earlier work

| SMILES | IC50 (MCF-7) | IC50 (21PT) | IC50 (T47D) | reduction in cell viability (SW480 cells) |
| --- | --- | --- | --- | --- |
| O=c1c(-c2ccc(OCCn3cc(-c4ccccc4)nn3)cc2)coc2cc(OCCn3cc(-c4ccccc4)nn3)cc(O)c12 [E] | 0.8 µM | 0.9 µM | 0.9 µM |  |
| CC(=O)Oc1ccccc1C(=O)OCCn1cc(COc2cc(O)c3c(=O)c(-c4ccc(O)cc4)coc3c2)nn1 [F] |  |  |  | 40.49% |
